This note sets out measurements from patent US7608577B2, “Peptidyl ketones as inhibitors of DPIV” (OSI Pharmaceuticals, Inc., priority 2001, dated 2009).

The target in one assay is T1, plasma DPIV activity (Rattus norvegicus, UniProt P14740).
T1 construct: from tissue; host or cells: plasma of Wistar rats
The assay can be described thus: DPIV inhibiting activity after intravasal and oral administration to Wistar rats. Type of assay: in vivo. The following applies: 100 mg/kg; for In vivo DPIV-inhibition at tmax, i.v.: intra-vasal (intra-arterial); for In vivo DPIV-inhibition at tmax, p.o.: oral. As for the experimental part: Male Wistar rats (Shoe: Wist(Sho)) with a body weight ranging between 250 and 350 g were purchased from Tierzucht Schönwalde (Schönwalde, Germany).
Animals were single-caged under conventional conditions with controlled temperature (22±2° C.) on a 12/12 hours light/dark cycle (light on at 06:00 AM). Standard pelleted chow (ssniff® Soest, Germany) and tap water acidified with HCl were allowed ad libitum.
After ≧one week of adaptation at the housing conditions, catheters were implanted into the carotid artery of Wistar rats under general anaesthesia (i.p. injection of 0.25 ml/kg b.w. ROMPUN® [2%], BayerVital, Germany and 0.5 ml/kg b.w. Ketamin 10, Atarost GmbH & Co., Twistringen, Germany). The animals were allowed to recover for one week. The catheters were flushed with heparin-saline (100 IU/ml) three times per week. In case of catheter dysfunction, a second catheter was inserted into the contralateral carotid artery of the respective rat. After one week of recovery from surgery, this animal was reintegrated into the study. In case of dysfunction of the second catheter, the animal was withdrawn from the study. A new animal was recruited and the experiments were continued in the planned sequence, beginning at least 7 days after catheter implantation.
Rats with intact catheter function were administered placebo (1 ml saline, 0.154 mol/l) or test compound via the oral and the intra-vasal (intra-arterial) route. After overnight fasting, 100 μl samples of heparinised arterial blood were collected at −30, −5, and 0 min. The test substance was dissolved freshly in 1.0 ml saline (0.154 mol/l) and was administered at 0 min either orally via a feeding tube (75 mm; Fine Science Tools, Heidelberg, Germany) or via the intra-vasal route. In the case of oral administration, an additional volume of 1 ml saline was injected into the arterial catheter. In the case of intra-arterial administration, the catheter was immediately flushed with 30 μl saline and an additional 1 ml of saline was given orally via the feeding tube.
After application of placebo or the test substances, arterial blood samples were taken at 2.5, 5, 7.5, 10, 15, 20, 40, 60 and 120 min from the carotid catheter of the conscious unrestrained rats. All blood samples were collected into ice cooled Eppendorf tubes (Eppendorf-Netheler-Hinz, Hamburg, Germany) filled with 10 μl 1M sodium citrate buffer (pH 3.0) for plasma DPIV activity measurement. Eppendorf tubes were centrifuged immediately (12000 rpm for 2 min, Hettich Zentrifuge EBA 12, Tuttlingen; Germany): The plasma fractions were stored on ice until analysis or were frozen at −20° C. until analysis. […]
Statistical evaluations and graphics were performed with PRISM® 3.02 (GraphPad Software, Inc.). All parameters were analysed in a descriptive manner including mean and SD.

The next assay deals with porcine DP II. The assay can be described thus: Inhibition of DPIV-like enzymes: dipeptidyl peptidase II. The following applies: inhibitor 1*10^−4 M-5*10^−8 M, pH7.6. The class given is biochemical. How it is done: DP II (3.4.14.2) releases N-terminal dipeptides from oligopeptides if the N-terminus is not protonated (McDonald, J. K., Ellis, S. & Reilly, T. J., 1966, J. Biol. Chem., 241, 1494-1501). Pro and Ala in P1-position are preferred residues. The enzyme activity is described as DPIV-like activity, but DP II has an acidic pH-optimum. The enzyme used was purified from porcine kidney.
100 μl inhibitor in a concentration range of 1*10^−4 M-5*10^−8 M was admixed with 100 μl buffer solution (40 mM HEPES, pH7.6, 0.015% Brij, 1 mM DTT), 50 μl lysylalanylaminomethylcoumarine solution (5 mM) and 20 μl porcine DP II (250fold diluted in buffer solution). Fluorescence measurement was performed at 30° C. and λexcitation=380 nm, λemission=465 nm for 25 min using a plate reader (HTS7000plus, Applied Biosystems, Weiterstadt, Germany). The Ki-values were calculated using Graphit 4.0.15 (Erithacus Software, Ltd., UK).

The target of a further assay is attractin (Homo sapiens, UniProt O75882). The assay can be described thus: Inhibition of DPIV-like enzymes: attractin. The class given is biochemical. The following applies: inhibitor 1 mM to 30 nM, Gly-Pro-pNA 0.4 mM, APN. As for the experimental part: 100 μl inhibitor stock solution was mixed with 100 μl buffer (HEPES pH7.6) and 20 μl diluted attractin and preincubated at 30° C. Reaction was started by addition of a mixture of 50 μl substrate (Gly-Pro-pNA, final concentration 0.4 mM) and 2 μl APN stock solution. Formation of the product pNA was measured at 405 nm and 30° C. over 10 min using the HTS 7000Plus plate reader (Perkin Elmer) and slopes were calculated. The final inhibitor concentrations ranged between 1 mM and 30 nM. For calculation of IC50 values, GraFit 4.0.13 (Erithacus Software) was used.
Sequence of attractin (O75882 84-1429, species assumed): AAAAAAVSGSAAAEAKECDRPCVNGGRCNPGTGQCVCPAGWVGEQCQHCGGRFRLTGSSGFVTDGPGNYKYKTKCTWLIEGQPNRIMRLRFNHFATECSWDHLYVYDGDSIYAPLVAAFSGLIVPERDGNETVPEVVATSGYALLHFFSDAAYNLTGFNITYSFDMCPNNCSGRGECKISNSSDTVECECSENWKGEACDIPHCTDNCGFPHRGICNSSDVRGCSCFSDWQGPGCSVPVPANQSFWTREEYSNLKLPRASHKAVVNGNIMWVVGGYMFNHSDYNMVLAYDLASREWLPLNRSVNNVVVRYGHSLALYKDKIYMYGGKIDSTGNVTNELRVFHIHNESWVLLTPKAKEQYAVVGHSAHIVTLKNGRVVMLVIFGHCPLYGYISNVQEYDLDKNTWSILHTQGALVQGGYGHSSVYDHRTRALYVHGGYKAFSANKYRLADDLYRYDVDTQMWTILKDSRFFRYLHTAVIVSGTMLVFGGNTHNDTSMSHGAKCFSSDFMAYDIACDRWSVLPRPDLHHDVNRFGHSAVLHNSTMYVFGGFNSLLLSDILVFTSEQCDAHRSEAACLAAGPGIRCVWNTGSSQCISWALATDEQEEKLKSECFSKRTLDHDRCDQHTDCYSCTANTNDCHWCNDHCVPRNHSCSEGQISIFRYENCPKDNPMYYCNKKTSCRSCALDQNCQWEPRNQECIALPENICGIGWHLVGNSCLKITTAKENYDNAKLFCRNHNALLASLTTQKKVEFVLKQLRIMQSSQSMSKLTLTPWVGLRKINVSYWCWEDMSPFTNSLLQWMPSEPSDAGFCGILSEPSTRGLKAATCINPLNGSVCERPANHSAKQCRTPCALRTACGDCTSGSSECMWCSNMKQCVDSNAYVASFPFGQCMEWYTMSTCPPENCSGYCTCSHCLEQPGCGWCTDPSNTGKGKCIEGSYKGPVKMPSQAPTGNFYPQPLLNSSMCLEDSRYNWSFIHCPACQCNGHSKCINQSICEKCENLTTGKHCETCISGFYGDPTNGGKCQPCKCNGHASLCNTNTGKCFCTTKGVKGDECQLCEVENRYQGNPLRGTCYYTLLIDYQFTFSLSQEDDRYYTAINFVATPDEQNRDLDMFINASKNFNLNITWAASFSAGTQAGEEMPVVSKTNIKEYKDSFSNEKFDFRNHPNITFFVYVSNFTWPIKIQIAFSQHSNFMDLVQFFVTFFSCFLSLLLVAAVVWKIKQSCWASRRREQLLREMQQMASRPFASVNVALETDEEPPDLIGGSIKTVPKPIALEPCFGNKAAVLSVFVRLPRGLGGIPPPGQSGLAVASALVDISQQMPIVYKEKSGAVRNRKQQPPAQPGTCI

T1 sequence (P14740 38-767 limits assumed): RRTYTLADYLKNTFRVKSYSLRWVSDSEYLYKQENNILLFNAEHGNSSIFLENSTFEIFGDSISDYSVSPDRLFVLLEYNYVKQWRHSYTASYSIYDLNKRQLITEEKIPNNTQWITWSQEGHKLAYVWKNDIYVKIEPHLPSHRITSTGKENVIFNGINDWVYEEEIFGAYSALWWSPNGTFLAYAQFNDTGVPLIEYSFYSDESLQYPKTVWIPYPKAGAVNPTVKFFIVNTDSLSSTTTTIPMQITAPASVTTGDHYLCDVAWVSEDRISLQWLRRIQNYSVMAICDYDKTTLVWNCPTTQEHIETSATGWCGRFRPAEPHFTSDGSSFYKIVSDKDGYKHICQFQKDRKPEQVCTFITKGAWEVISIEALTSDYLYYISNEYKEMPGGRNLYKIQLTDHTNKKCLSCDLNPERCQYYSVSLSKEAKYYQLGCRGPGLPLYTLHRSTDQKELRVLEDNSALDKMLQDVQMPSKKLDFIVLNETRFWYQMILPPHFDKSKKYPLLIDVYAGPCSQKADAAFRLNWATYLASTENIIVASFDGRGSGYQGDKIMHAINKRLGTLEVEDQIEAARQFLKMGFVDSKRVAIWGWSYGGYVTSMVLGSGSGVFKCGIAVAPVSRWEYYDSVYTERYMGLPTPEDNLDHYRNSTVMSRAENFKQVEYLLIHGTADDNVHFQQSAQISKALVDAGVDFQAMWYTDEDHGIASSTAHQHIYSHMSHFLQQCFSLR

Turning to `Br.CC(=O)OCC(=O)[C@@H]1CCCN1C(=O)[C@@H](NC(=O)[C@H](C)N)C(C)C` [H-Ala-Val-Pro-CH2O—CO—CH3*HBr, 2-[(Acetyloxy-methyl)carbonyl]-1-N-[(L)-Alanyl-(L)-Valinyl]-(2S)-pyrrolidine hydrobromide], on plasma DPIV activity, the “In vivo DPIV-inhibition at tmax, i.v.” value stood at 89% and the “In vivo DPIV-inhibition at tmax, p.o.” value stood at 87%.
For the compound `Br.CC(C)[C@H](NC(=O)[C@H](C)N)C(=O)N1CCC[C@H]1C(=O)COC(=O)c1ccccc1` [H-Ala-Val-Pro-CO—CH2O—CO—Ph*HBr, 2-[(Benzoyloxy-methyl)carbonyl]-1-N-[{(L)-Alanyl}-(L)-Valinyl]-(2S)-pyrrolidine hydrobromide], the “inhibition of DP II” value on porcine DP II is “No inhibition”. Also, on plasma DPIV activity, the “In vivo DPIV-inhibition at tmax, i.v.” value turned out to be 95% and the “In vivo DPIV-inhibition at tmax, p.o.” value was 68%.
Regarding `Br.CC(=O)[C@@H]1CCCN1C(=O)[C@@H](NC(=O)[C@H](C)N)C(C)C` [H-Ala-Val-Pro-Me*HBr, 2-Methylcarbonyl-1-N-[(L)-Alanyl-(L)-Valinyl]-(2S)-pyrrolidine hydrobromide], the inhibition of attractin result on attractin is on record as “No inhibition”.
